# According to patent publication US6429024B1, “Test method for IgA nephropathy” (Asahi Kasei Kabushiki Kaisha, priority 1998, dated 2002):
# Test system: antibody recognizing the core peptide of the hinge region in IgA1 (IgG class, serum of patient with IgA nephropathy)
# Test: Assay of inhibitory activities of various synthetic peptides (enzyme immunoassay: patient serum pre-incubated with peptide, then reacted with immobilized IgA1 hinge core peptide-BSA antigen)
# Assay type: binding
# Conditions: synthetic peptide 1 μg/ml in PBS mixed 1:1 with 1/50 diluted serum, room temperature 3 hours; peroxidase labeled anti-human IgG; absorbancy at 490 nm
# Description: Antigen was prepared according to the method described in the above example 1 (1).
# The above antigen solution was dissolved to […] in 0.015 M carbonate buffer (pH 9.6) and each 100 μl was added in each well of the 96 well microtiter plate (A Flow General Co., Linbro/Titertek EIA Microtitration plate, Cat. No. 76-381-04), then incubated at 4° C. overnight (standing culture).
# PBS (0.01 M phosphate buffer, pH 7.5 containing 0.15 M NaCl) solution (200 μl) containing 1% bovine serum albumin (fraction V, purchased from SIGMA Inc.) was added in each well, and incubated at 4° C. overnight. Each well was washed with 200 μl of PBS. The antigen was immobilized.
# Synthetic peptide [the core peptide constructing a part of the hinge region in IgA1 as follows:
# was dissolved to 1 μg/ml with PBS. The above diluted serum of patient with IgA nephropathy and the solution of synthetic peptide were mixed in equal volume (1:1). Also the above diluted serum of patient with IgA nephropathy and PBS without containing synthetic peptide (hereinafter designated as blank solution) were mixed in equal volume (1:1). These mixtures were incubated at room temperature for 3 hours.
# After termination of the incubation, each solution (100 μl) was added in each well, which was provided with the antigen immobilized therein, of the 96 well microtiter plate and incubated at room temperature for 3 hours.
# Each well was washed three times with 200 μl of PBS containing 0.1% bovine serum albumin, 0.05% Tween-20 (hereinafter designated as PS/BSA/Tween).
# A solution (100 μl) of peroxidase labeled anti-human IgG (purchased from Organon Tecknika Inc.), which was diluted to 1/200 with PBS, was added in each well.
# After incubation at room temperature for 1 hour, each well was washed three times with PS/BSA/Tween (200 μl).
# Coloring agent (100 μl)(orthophenylenediamine 20 mg, sodium […]·12H2O 1.795 g, citric acid 0.525 g, and hydrogen peroxide 15 μl were dissolved in water 50 ml) was added in each well, and incubated at room temperature for 1 hour.
# After the incubation was terminated, absorbency at 490 nm was measured using microplate reader (Bio-Red Inc., Microplate reader Model 450).
row,Substance,inhibitory action on the reaction of patient serum with the core peptide of the hinge region in IgA1
1,"Leu Lys Pro Asp Pro (LKPDP; listed as Bovine sp.) [core peptide constructing a part of the bovine serum albumin, reference compound]",no inhibitory action on the reaction was observed
2,"Leu Pro Pro Leu Thr (LPPLT; listed as Bovine sp.) [core peptide constructing a part of the bovine serum albumin, reference compound]",no inhibitory action on the reaction was observed
3,Pro Ser Pro Ser Cys (PSPSC) [core peptide constructing a part of the hinge region in IgA1],inhibitory action on the reaction was observed
4,Pro Ser Pro Ser Thr (PSPST) [core peptide constructing a part of the hinge region in IgA1],inhibitory action on the reaction was observed
5,Pro Ser Thr Pro Pro (PSTPP) [core peptide constructing a part of the hinge region in IgA1],inhibitory action on the reaction was observed
6,Pro Thr Pro Ser Pro (PTPSP) [core peptide constructing a part of the hinge region in IgA1],inhibitory action on the reaction was observed
7,Pro Val Pro Ser Thr (PVPST) [core peptide constructing a part of the hinge region in IgA1],inhibitory action on the reaction was observed
8,"Ser Pro Asp Leu Pro (SPDLP; listed as Bovine sp.) [core peptide constructing a part of the bovine serum albumin, reference compound]",no inhibitory action on the reaction was observed
9,"Thr Pro Asp Glu Thr (TPDET; listed as Bovine sp.) [core peptide constructing a part of the bovine serum albumin, reference compound]",no inhibitory action on the reaction was observed
10,Thr Pro Pro Thr Pro (TPPTP) [core peptide constructing a part of the hinge region in IgA1],inhibitory action on the reaction was observed
11,"Thr Pro Val Glu Ser (TPVES; listed as Bovine sp.) [core peptide constructing a part of the bovine serum albumin, reference compound]",no inhibitory action on the reaction was observed
